Common to all, as to format: cell-based, human
In series [1] the test system is phospho-Erk MAPK. The experiment in a line: Growth factor stimulated phospho-Erk MAPK, Western blot. An excerpt: (§1) Standard Western blot assays wew used to measure cellular levels of p53, Bcl-2, p21/Waf1, phospho-tau, tau, c-fos, NTP, and activated (phosphorylated) forms of Erk mitogen activated protein (MAP) kinase, amino-terminal c-jun-activated kinase (pJNK), and p38/HOG1. Immunoprecipitation followed by Western blot analysis was used to measure p85 subunit associated with IRS1. For Western blot analysis of p53 Bcl-2, phospho-tau, tau, c-fos, and NTP, the cells were lysed in ice cold radioimmunoprecipitation assay (RIPA) buffer supplemented with protease and phosphatase inhibitors. For the immunoprecipitation studies, Western blot analysis of phospho-Erk, pJNK, and p38, and the PI3 kinase assays, the cells were harvested in Triton lysis buffer supplemented with protease and phosphatase inhibitors. Protein concentrations were measured using the BCA assay (Pierce, Rockford, Ill.). Samples containing 60 μg of protein were fractionated by sodium dodecyl sulfate polyacrylamide gel electrophoresis (SDS-PAGE), then transferred to PVDF membranes, and analyzed by Western immunoblotting. Immunoreactivity was detected with horseradish peroxidase conjugated secondary IgG and PicoWest enhanced chemiluminescence reagents (Pierce Chemical Company, Rockford, Ill.). CAT activity was measured using known methods.
(§2) The potential mechanisms by which the differential effects of insulin, IGF1 and PDGF might occur were explored by examining pathways, which mediate PNET2 neuronal apoptosis and neuritic sprouting. […] Western blot analysis was performed with cell lysates obtained from cultures stimulated with insulin, IGF1, or PDGF for 0-30 minutes or 24 hours with equivalent protein loading (60 μg/sample). The membranes were probed using antibodies to Erk, phospho-Erk, Jun, and phospho-JNK. […] In contrast, after 24 hours of AD7c-NTP gene induction and growth factor stimulation, high levels of phospho-Erk MAPK were detected in the IGF-1 and PDGF-stimulated cultures, but not in the serum-starved or insulin-stimulated cultures. […] In contrast, the levels of c-fos transcription factor were equally expressed after 24 hours IPTG induction of AD7c-NTP expression and either serum starvation or stimulation with insulin, IGF1 or PDGF.

Series [2] relates to nitric oxide synthase-3 (NOS-3). The experiment in a line: NOS-3 expression, Western blot. The note with it: PNET2 cells induced to express AD7c-NTP; relative to PDGF-stimulated cultures.
Description: as §1, with “methods. […]” for “methods.”

Series [3] relates to IRS-1-associated PI3 kinase. The experiment in a line: IRS-1-associated PI3 kinase activity. The note with it: 3 mM IPTG-induced cultures, 30 minutes of stimulation. As to the method: The cells were harvested in Triton lysis buffer supplemented with protease and phosphatase inhibitors. Total PI3K was immunoprecipitated from 500 μg protein in cell lysates using rabbit polyclonal antibodies to the p85 subunit of PI3K and Protein A sepharose. The immunoprecipitants were incubated for 5 minutes at room temperature with 10 μg of sonicated phosphatidylinositol in HEPES buffer (200 mM HEPES, 4 mM EGTA, 4 mM sodium phosphate, pH 7.0). Reactions were initiated by the addition of 5 μCi [α^32p] ATP, 15 mM MgCl2, 150 mM ATP, 1.5 mM Tris-HCl, pH 7.4, and 15 mM NaCl. […] Phosphorylated lipids were analyzed by thin layer chromatography using gel plates pre-coated with 1% oxalate (Merck, White House Station, N.J.). PI3K activity was measured with a phosphorimager.
PI3 kinase is an important mediator of neuronal survival. […] Since insulin and IGF-1 can activate PI3 kinase through the insulin-receptor substrate-1 (IRS-1) or through IRS-1-independent pathways, both IRS1-associated PI3 kinase and total PI3 kinase activities were measured. […] Levels of PI3 kinase activity were measured in anti-phospho-tyrosine (PY) immunoprecipitates. […] Similarly, PI3 kinase activity was readily detected in the PY immunoprecipitates prepared with cells stimulated with insulin or PDGF.

The subject of series [4] is phospho-JNK. The experiment in a line: Growth factor stimulated phospho-JNK, Western blot. The following applies: 5-30 min stimulation.
Description: as §1, §2

The test system of series [5] is p21/Waf1. The experiment in a line: p21/Waf1 expression, Western blot / MICE assay. The note with it: PNET2 cells induced to express AD7c-NTP, growth factor stimulated.
Description: as §1, with “For the immunoprecipitation studies, Western blot analysis of phospho-Erk, pJNK, and p38, and the PI3 kinase assays, the cells were harvested in Triton lysis buffer supplemented with protease and phosphatase inhibitors.” left out
The MICE assay is known in the art (e.g., as described by de la Monte et al., 1999, Biotechniques 26:107301076). […] Immunoreactivity was detected using horseradish peroxidase conjugated secondary antibody (Pierce, Rockford, Ill.) and the TMB soluble peroxidase substrate (Pierce, Rockford, Ill.). […]

Entries after “also recorded” stand apart in the source; their conditions may differ.

Turning to “insulin: Human insulin purchased from Novagen”, the “phospho-Erk MAPK level, short-term stimulation” value in series [1] (0-30 minutes stimulation) was “increased levels”. Also, the “phospho-Erk MAPK level, 24 hours” value in series [1] (24 hours of AD7c-NTP induction and growth factor stimulation) is recorded as “reduced levels”. Also, the NOS-3 level entry in series [2] is “increased levels”. Also, the “IRS-1-associated PI3 kinase activity” value in series [3] is recorded as “sharply increased”. Further, in series [4], the “phospho-JNK level, short-term stimulation” value was “sharply increased and sustained elevations”. Moreover, the p21/Waf1 level result in series [5] is recorded as “increased levels of p21/Waf1; also recorded: significantly increased levels”.
